# Results as given in ChEMBL document CHEMBL2203270, “POMA analyses as new efficient bioinformatics' platform to predict and optimise bioactivity of synthesized 3a,4-dihydro-3H-indeno[1,2-c]pyrazole-2-carboxamide/carbothioamide analogues” (Bioorg Med Chem Lett, 2012).
# Assays:
# [1] = system: Human immunodeficiency virus 2; assay: Antiviral activity against HIV-2 ROD infected in MT4 cells assessed as protection against virus-induced cytopathicity relative to control; assay type: functional; conditions: Human immunodeficiency virus 2, ISOLATE ROD
# [2] = Cytotoxicity against mock-infected human MT4 cells assessed as decrease in cell viability by MTT assay; assay type: cell-based
# [3] = system: Human immunodeficiency virus 1; assay: Antiviral activity against HIV-1 3B infected in MT4 cells assessed as protection against virus-induced cytopathicity relative to control; assay type: functional; conditions: Human immunodeficiency virus 1, 3B
# [4] = system: Human immunodeficiency virus 1; assay: Antiviral activity against HIV-1 3B infected in MT4 cells assessed as inhibition of virus-induced cytopathicity; assay type: functional, organism-based; conditions: Human immunodeficiency virus 1, 3B
# [5] = system: Human immunodeficiency virus 2; assay: Antiviral activity against HIV-2 ROD infected in MT4 cells assessed as inhibition of virus-induced cytopathicity; assay type: functional, organism-based; conditions: Human immunodeficiency virus 2, ISOLATE ROD
# Aspergillus niger = assay: Antimicrobial activity against Aspergillus niger NCIM 1196 by broth dilution technique; assay type: functional
# Candida albicans = assay: Antimicrobial activity against Candida albicans NCIM 3471 by broth dilution technique; assay type: functional
# Pseudomonas aeruginosa = assay: Antimicrobial activity against Pseudomonas aeruginosa ATCC 10145 by broth dilution technique; assay type: functional
# Escherichia coli = assay: Antimicrobial activity against Escherichia coli NCIM 5051 by broth dilution technique; assay type: functional
# Bacillus subtilis = assay: Antimicrobial activity against Bacillus subtilis NCIM 2439 by broth dilution technique; assay type: functional
# Staphylococcus aureus = assay: Antimicrobial activity against Staphylococcus aureus NCIM 2079 by broth dilution technique; assay type: functional
IC50 [4],IC50 [5],MIC (Aspergillus niger),MIC (Candida albicans),MIC (Pseudomonas aeruginosa),MIC (Escherichia coli),MIC (Bacillus subtilis),MIC (Staphylococcus aureus),SMILES,Emax [1],CC50 [2],Emax [3],MFC (Aspergillus niger),MFC (Candida albicans),MBC (Pseudomonas aeruginosa),MBC (Escherichia coli),MBC (Bacillus subtilis),MBC (Staphylococcus aureus)
> 132 µM,> 132 µM,,,,,,,COc1ccc(C2C3Cc4cc(OC)c(OC)cc4C3=NN2C(=O)Nc2ccc(F)cc2)cc1 (centres undefined),9%,132 µM,7%,,,,,,
> 208 µM,> 208 µM,,,,,,,COc1ccc(C2C3Cc4cc(OC)c(OC)cc4C3=NN2C(=O)Nc2ccc(F)cc2)cc1OC (centres undefined),37%,208 µM,11%,,,,,,
> 106 µM,> 106 µM,,,,,,,COc1ccc(C2C3Cc4cc(OC)c(OC)cc4C3=NN2C(=O)Nc2ccc(Cl)cc2)cc1OC (centres undefined),9%,106 µM,4%,,,,,,
> 145 µM,> 145 µM,,,,,,,COc1ccc(C2C3Cc4cc(OC)c(OC)cc4C3=NN2C(=O)Nc2ccc(C)cc2C)cc1OC (centres undefined),16%,145 µM,16%,,,,,,
> 31.9 µM,> 31.9 µM,,,,,,,COc1cc2c(cc1OC)C1=NN(C(=O)Nc3ccc(F)cc3)C(c3ccncc3)C1C2 (centres undefined),2%,31.9 µM,2%,,,,,,
> 86 µM,> 86 µM,,,,,,,COc1cc2c(cc1OC)C1=NN(C(=O)Nc3ccc(Br)cc3)C(c3ccccc3)C1C2 (centres undefined),10%,86 µM,3%,,,,,,
> 29.5 µM,> 29.5 µM,,,,,,,COc1cc2c(cc1OC)C1=NN(C(=O)Nc3ccc(F)c(Cl)c3)C(c3ccncc3)C1C2 (centres undefined),2%,29.5 µM,4%,,,,,,
> 33.4 µM,> 33.4 µM,,,,,,,COc1cc2c(cc1OC)C1=NN(C(=O)Nc3ccc(C)cc3C)C(c3ccccc3)C1C2 (centres undefined),7%,33.4 µM,5%,,,,,,
> 4.83 µM,> 4.83 µM,,,,,,,COc1cc2c(cc1OC)C1=NN(C(=O)Nc3ccc(Cl)cc3)C(c3ccncc3)C1C2 (centres undefined),5%,4.83 µM,4%,,,,,,
> 28.4 µM,> 28.4 µM,,,,,,,COc1cc2c(cc1OC)C1=NN(C(=O)Nc3ccc(Cl)cc3)C(c3ccccc3)C1C2 (centres undefined),19%,28.4 µM,2%,,,,,,
> 9.09 µM,> 9.09 µM,,,,,,,COc1cc2c(cc1OC)C1=NN(C(=O)Nc3ccc(F)cc3)C(c3ccccc3Cl)C1C2 (centres undefined),1%,9.09 µM,2%,,,,,,
> 9.36 µM,> 9.36 µM,,,,,,,COc1cc2c(cc1OC)C1=NN(C(=O)Nc3c(C)cccc3C)C(c3ccc(F)cc3)C1C2 (centres undefined),4%,9.36 µM,3%,,,,,,
> 182 µM,> 182 µM,,,,,,,COc1ccc(C2C3Cc4cc(OC)c(OC)cc4C3=NN2C(=O)Nc2c(C)cccc2C)cc1OC (centres undefined),37%,182 µM,11%,,,,,,
> 211 µM,> 211 µM,,,,,,,COc1cc2c(cc1OC)C1=NN(C(=O)Nc3c(C)cccc3C)C(c3ccccc3)C1C2 (centres undefined),12%,211 µM,4%,,,,,,

# Second part, the molecule before the results:
SMILES,IC50 [4],IC50 [5],MIC (Aspergillus niger),MIC (Candida albicans),MIC (Pseudomonas aeruginosa),MIC (Escherichia coli),MIC (Bacillus subtilis),MIC (Staphylococcus aureus),Emax [1],CC50 [2],Emax [3],MFC (Aspergillus niger),MFC (Candida albicans),MBC (Pseudomonas aeruginosa),MBC (Escherichia coli),MBC (Bacillus subtilis),MBC (Staphylococcus aureus)
COc1cc2c(cc1OC)C1=NN(C(=O)Nc3ccc(F)cc3)C(c3ccc(F)cc3)C1C2 (centres undefined),> 119 µM,> 119 µM,,,,,,,14%,119 µM,4%,,,,,,
Cc1cn([C@H]2C[C@H](N=[N+]=[N-])[C@@H](CO)O2)c(=O)[nH]c1=O [ZIDOVUDINE],,,,,,,,,66%,> 93.5 µM,90%,,,,,,
COc1cc2c(cc1OC)C1=NN(C(N)=O)C(c3ccc(F)cc3)C1C2 (centres undefined),> 151 µM,> 151 µM,128 µg/mL,128 µg/mL,8 µg/mL,8 µg/mL,8 µg/mL,8 µg/mL,9%,151 µM,3%,> 512 µg/mL,> 512 µg/mL,16 µg/mL,16 µg/mL,16 µg/mL,16 µg/mL
COc1ccc(C2C3Cc4cc(OC)c(OC)cc4C3=NN2C(N)=O)cc1OC (centres undefined),> 151 µM,> 151 µM,32 µg/mL,32 µg/mL,128 µg/mL,64 µg/mL,128 µg/mL,128 µg/mL,30%,151 µM,6%,512 µg/mL,512 µg/mL,> 512 µg/mL,> 512 µg/mL,> 512 µg/mL,> 512 µg/mL
COc1cc2c(cc1OC)C1=NN(C(=O)Nc3ccc(C)cc3C)C(c3ccc(F)cc3)C1C2 (centres undefined),> 198 µM,> 198 µM,,,,,,,12%,198 µM,4%,,,,,,
COc1cc2c(cc1OC)C1=NN(C(N)=O)C(c3ccccc3Cl)C1C2 (centres undefined),> 6.47 µM,> 6.47 µM,256 µg/mL,128 µg/mL,16 µg/mL,16 µg/mL,16 µg/mL,16 µg/mL,3%,6.47 µM,3%,> 512 µg/mL,> 512 µg/mL,256 µg/mL,256 µg/mL,256 µg/mL,256 µg/mL
COc1cc2c(cc1OC)C1=NN(C(=O)Nc3ccc(F)cc3)C(c3ccccc3)C1C2 (centres undefined),> 68.6 µM,> 68.6 µM,,,,,,,7%,68.6 µM,3%,,,,,,
COc1cc2c(cc1OC)C1=NN(C(=O)Nc3ccc(Br)cc3)C(c3ccccc3Cl)C1C2 (centres undefined),> 11.5 µM,> 11.5 µM,,,,,,,2%,11.5 µM,2%,,,,,,
COc1cc2c(cc1OC)C1=NN(C(=O)Nc3ccc(Br)cc3)C(c3ccncc3)C1C2 (centres undefined),> 26.5 µM,> 26.5 µM,,,,,,,1%,26.5 µM,1%,,,,,,
COc1cc2c(cc1OC)C1=NN(C(=O)Nc3ccc(C)cc3C)C(c3ccccc3Cl)C1C2 (centres undefined),> 11 µM,> 11 µM,,,,,,,5%,11 µM,1%,,,,,,
COc1ccc(C2C3Cc4cc(OC)c(OC)cc4C3=NN2C(=O)Nc2ccc(Br)cc2)cc1 (centres undefined),> 136 µM,> 136 µM,,,,,,,5%,136 µM,3%,,,,,,
COc1ccc(C2C3Cc4cc(OC)c(OC)cc4C3=NN2C(=O)Nc2c(C)cccc2C)cc1 (centres undefined),> 169 µM,> 169 µM,,,,,,,6%,169 µM,5%,,,,,,
COc1cc2c(cc1OC)C1=NN(C(=O)Nc3ccc(Br)cc3)C(c3ccc(F)cc3)C1C2 (centres undefined),> 108 µM,> 108 µM,,,,,,,16%,108 µM,8%,,,,,,
COc1ccc(C2C3Cc4cc(OC)c(OC)cc4C3=NN2C(=O)Nc2ccc(Br)cc2)cc1OC (centres undefined),> 150 µM,> 150 µM,,,,,,,39%,150 µM,15%,,,,,,
COc1cc2c(cc1OC)C1=NN(C(=O)Nc3c(C)cccc3C)C(c3ccccc3Cl)C1C2 (centres undefined),> 159 µM,> 159 µM,,,,,,,9%,159 µM,4%,,,,,,
COc1cc2c(cc1OC)C1=NN(C(=O)Nc3ccc(C)cc3C)C(c3ccncc3)C1C2 (centres undefined),> 25.2 µM,> 25.2 µM,,,,,,,4%,25.2 µM,1%,,,,,,
